Data: patent publication US6846810B2, “Antiviral nucleoside derivatives” (Roche Palo Alto LLC, priority 2002, dated 2005)
pIC50: −log10 of the molar value.

Assays:
[1] = system: HCV replicon RNA (Renilla luciferase HCV replicon cells 2209-23); experiment: Renilla luciferase assay (HCV replicon); assay type: cell-based, Hepatitis C virus; conditions: Huh-7, 72 h; 2209-23 replicon cells (human hepatoma Huh7), three days incubation, 50% reduction of replicon level

`CC(=O)Nc1ccn([C@@H]2O[C@@](COC(C)=O)(N=[N+]=[N-])[C@@H](OC(C)=O)[C@H]2OC(C)=O)c(=O)n1` gave a melting point of 77 to 80.1 °C.
In the case of `CCCCC(=O)O[C@H]1[C@@H](n2ccc(N)nc2=O)O[C@@](CO)(N=[N+]=[N-])[C@H]1OC(=O)CCCC.CS(=O)(=O)O`, the melting point was 115.3 to 120.1 °C.
`CCCCCC(=O)O[C@H]1[C@@H](n2ccc(N)nc2=O)O[C@@](CO)(N=[N+]=[N-])[C@H]1OC(=O)CCCCC.CS(=O)(=O)O` showed a melting point of 127.3 to 128.6 °C.
`CCCCC(=O)OC[C@@]1(N=[N+]=[N-])O[C@H](n2ccc(N)nc2=O)[C@H](O)[C@@H]1O.Cl` gave a melting point of 62.1 to 87.7 °C.
`CC(C)(C)C(=O)Nc1ccn([C@@H]2O[C@@](CO)(N=[N+]=[N-])[C@@H](O)[C@H]2O)c(=O)n1` showed a melting point of 108 to 114 °C.
Compound `[N-]=[N+]=N[C@]1(CO)O[C@@H](n2ccc(NC(=O)c3ccccc3)nc2=O)[C@H](O)[C@@H]1O` has a melting point of 108.1 to 118.2 °C.
`CCCCOC(=O)Nc1ccn([C@@H]2O[C@@](CO)(N=[N+]=[N-])[C@@H](O)[C@H]2O)c(=O)n1` showed a melting point of 86.5 to 94 °C.
For `CCC(=O)OC[C@@]1(N=[N+]=[N-])O[C@@H](n2ccc(N)nc2=O)[C@H](OC(=O)CC)[C@@H]1OC(=O)CC`, the melting point was 75.9 to 79.9 °C.
`Cl.[N-]=[N+]=N[C@]1(COC(=O)c2ccccc2)O[C@H](n2ccc(N)nc2=O)[C@H](O)[C@@H]1O` showed a melting point of 163 to 166.5 °C.
`CC(C)CC(=O)OC[C@@]1(N=[N+]=[N-])O[C@H](n2ccc(N)nc2=O)[C@H](OC(=O)CC(C)C)[C@@H]1OC(=O)CC(C)C.Cl` showed a melting point of 142 to 142.8 °C.
`CCCCCCOC(=O)Nc1ccn([C@H]2O[C@@](CO)(N=[N+]=[N-])[C@@H](O)[C@H]2O)c(=O)n1` showed a melting point of 134.4 to 136 °C.
In the case of `CC(C)(C)C(=O)OC[C@]1(N=[N+]=[N-])O[C@@H](n2ccc(N)nc2=O)[C@@H](OC(=O)C(C)(C)C)[C@H]1OC(=O)C(C)(C)C.Cl`, the melting point was 136.2 to 140 °C.
`CC(=O)OC[C@@]1(N=[N+]=[N-])O[C@H](n2ccc(N)nc2=O)[C@H](OC(C)=O)[C@@H]1OC(C)=O.Cl` showed a melting point of 88 to 90.9 °C.
With `COC(=O)Nc1ccn([C@H]2O[C@@](CO)(N=[N+]=[N-])[C@@H](O)[C@H]2O)c(=O)n1` the melting point was 141.1 to 141.8 °C.
Work on `CCC(=O)OC[C@@]1(N=[N+]=[N-])O[C@H](n2ccc(N)nc2=O)[C@H](OC(=O)CC)[C@@H]1OC(=O)CC.Cl` yielded a melting point of 72 to 75.2 °C.
For `Cl.[N-]=[N+]=N[C@]1(COC(=O)c2ccccc2)O[C@H](n2ccc(N)nc2=O)[C@H](OC(=O)c2ccccc2)[C@@H]1OC(=O)c1ccccc1`, the melting point was 208.9 to 210.3 °C.
For `CCCCCCOC(=O)OC[C@@]1(N=[N+]=[N-])O[C@H](n2ccc(N)nc2=O)[C@H](O)[C@@H]1O.O=C(O)C(F)(F)F`, the melting point was 71 to 103.9 °C.
Compound `CCCCCCCOC(=O)OC[C@@]1(N=[N+]=[N-])O[C@H](n2ccc(N)nc2=O)[C@H](O)[C@@H]1O.O=C(O)C(F)(F)F` has a melting point of 90.9 to 94.6 °C.
`CCCCCCCCOC(=O)OC[C@@]1(N=[N+]=[N-])O[C@H](n2ccc(N)nc2=O)[C@H](O)[C@@H]1O.O=C(O)C(F)(F)F` gave a melting point of 70.5 to 81 °C.
For `CCCCCCCCCCCC(=O)OC[C@@]1(N=[N+]=[N-])O[C@H](n2ccc(N)nc2=O)[C@H](O)[C@@H]1O.Cl`, the melting point was 154 to 155 °C.
`CCCCCCCCCC(=O)OC[C@@]1(N=[N+]=[N-])O[C@H](n2ccc(N)nc2=O)[C@H](O)[C@@H]1O.Cl` gave a melting point of 180.6 to 181.2 °C.
`CC(C)(C)OC(=O)Nc1ccn([C@@H]2O[C@@](CO)(N=[N+]=[N-])[C@@H](O)[C@H]2O)c(=O)n1` gave a melting point of 80 to 83.5 °C.
`CCCCC(=O)O[C@H]1[C@@H](n2ccc(N)nc2=O)O[C@@](CO)(N=[N+]=[N-])[C@H]1OC(=O)CCCC.Cl` gave a melting point of 124.3 to 128.4 °C.
In the case of `Cc1ccc(C(=O)OC[C@@]2(N=[N+]=[N-])O[C@H](n3ccc(N)nc3=O)[C@H](O)[C@@H]2O)cc1.Cl`, the melting point was 187 to 189 °C.
`CCCCCCCCCCCCC(=O)OC[C@]1(N=[N+]=[N-])OC(n2ccc(N)nc2=O)[C@H](O)[C@@H]1O.Cl` (some centres unmarked) showed a melting point of 178.6 to 179.4 °C.
With `CCCC(=O)O[C@H]1[C@@H](n2ccc(N)nc2=O)O[C@@](CO)(N=[N+]=[N-])[C@H]1OC(=O)CCC.O=C(O)C(F)(F)F` the melting point was 91 to 94.9 °C.
`CCCC(=O)O[C@H]1[C@@H](n2ccc(N)nc2=O)O[C@@](CO)(N=[N+]=[N-])[C@H]1OC(=O)CCC.Cl` showed a melting point of 154.6 to 155.6 °C.
Work on `CC(=O)Nc1ccn([C@@H]2O[C@@](CO)(N=[N+]=[N-])[C@@H](O)[C@H]2O)c(=O)n1` yielded a melting point of 94 to 96.8 °C.
With `CCCCCCCCCOC(=O)OC[C@@]1(N=[N+]=[N-])O[C@H](n2ccc(N)nc2=O)[C@H](O)[C@@H]1O.Cl` the melting point was 174.7 to 176.1 °C.
Compound `CC(C)C(=O)O[C@H]1[C@@H](n2ccc(N)nc2=O)O[C@@](CO)(N=[N+]=[N-])[C@H]1OC(=O)C(C)C.Cl` has a melting point of 191.1 to 191.9 °C.
Work on `Cl.[N-]=[N+]=N[C@]1(CO)O[C@H](n2ccc(N)nc2=O)[C@H](OC(=O)c2ccccc2)[C@@H]1OC(=O)c1ccccc1` yielded a melting point of 166.2 to 168.1 °C.
With `CCC(=O)O[C@H]1[C@@H](n2ccc(N)nc2=O)O[C@@](CO)(N=[N+]=[N-])[C@H]1OC(=O)CC.Cl` the melting point was 194.6 to 198.2 °C.
In the case of `CCCC(=O)OC[C@@]1(N=[N+]=[N-])O[C@H](n2ccc(N)nc2=O)[C@H](OC(=O)CCC)[C@@H]1OC(=O)CCC.Cl`, the melting point was 167.5 to 170.6 °C.
Work on `CCC(=O)OC[C@@]1(N=[N+]=[N-])O[C@H](n2ccc(N)nc2=O)[C@H](OC(=O)CC)[C@@H]1OC(=O)CC.CS(=O)(=O)O` yielded a melting point of 149 to 153 °C.
Compound `CCCCCCCCNC(=O)OC[C@@]1(N=[N+]=[N-])O[C@H](n2ccc(N)nc2=O)[C@H](O)[C@@H]1O.Cl` has a melting point of 164.9 to 168.5 °C.
For `CC(C)(C)C(=O)Nc1ccn([C@@H]2O[C@@](COC(=O)C(C)(C)C)(N=[N+]=[N-])[C@@H](OC(=O)C(C)(C)C)[C@H]2OC(=O)C(C)(C)C)c(=O)n1` [Compound 5, 2,2-Dimethyl-propionic acid (2R,3S,4R,5R)-2-azido-5-[4-(2,2-dimethyl-propionylamino)-2-oxo-2H-pyrimidin-1-yl]-3,4-bis-(2,2-dimethyl-propionyloxy)-tetrahydro-furan-2-ylmethyl ester], the pIC50 [1] was 5.27 and the melting point was 67.4 to 80 °C.
With `CC(C)C(N)C(=O)OC[C@@]1(N=[N+]=[N-])O[C@@H](n2ccc(N)nc2=O)[C@H](O)[C@@H]1O` (stereo partly drawn) [Compound 18, 1-[(2R,3S,4R,5R)-5-(4-Amino-2-oxo-2H-pyrimidin-1-yl)-2-azido-3,4-dihydroxy-tetrahydro-furan-2-ylmethoxycarbonyl]-2-methyl-propyl-ammonium; chloride] the pIC50 [1] was 5.62.
In the case of `[N-]=[N+]=N[C@]1(COC(=O)c2ccccc2)O[C@@H](n2ccc(N)nc2=O)[C@H](OC(=O)c2ccccc2)[C@@H]1OC(=O)c1ccccc1` [Compound 25, Benzoic acid (2R,3S,4R,5R)-3,4-dibenzoyloxy-5-(4-amino-2-oxo-2H-pyrimidin-1-yl)-2-azido-tetrahydro-furan-2-ylmethyl ester], the pIC50 [1] was 5.61.
`CCCCC(=O)OC[C@@]1(N=[N+]=[N-])O[C@H](n2ccc(N)nc2=O)[C@H](OC(=O)CCCC)[C@@H]1OC(=O)CCCC.Cl` [Compound 46, (S)-1-((3R,4S,5R)-5-Azido-3,4-bis-pentanoyloxy-5-pentanoyloxymethyl-tetrahydro-furan-2-yl)-2-oxo-1,2-dihydro-pyrimidin-4-yl-ammonium; chloride] showed a melting point of 72.9 to 74.7 °C.
For `CCCCCCCCCCOC(=O)OC[C@@]1(N=[N+]=[N-])O[C@H](n2ccc(N)nc2=O)[C@H](O)[C@@H]1O.O=C(O)C(F)(F)F` [Compound 86, (S)-1-((3R,4S,5R)-5-Azido-5-decyloxycarbonyloxymethyl-3,4-dihydroxy-tetrahydro-furan-2-yl)-2-oxo-1,2-dihydro-pyrimidin-4-yl-ammonium; trifluoro-acetate], the melting point was 75 to 77.7 °C.
